Assay results: patent US7829063B2, “Development of molecular imaging probes for carbonic anhydrase-IX using click chemistry” (Siemens Medical Solutions USA, Inc., priority 2007, dated 2010)
Where two headings read alike, the source gives them in different places.

Molecular target: T1, CA-IX (Homo sapiens, UniProt Q16790)
T1 construct: His tag (C); purchased R&D Systems Inc. 2188-CA; host or cells: mouse myeloma cell line NS0
Assay: CA-IX combinatorial library screening, competitive fluorescence-based assay with dansylamide (DNSA)
Format: binding
Conditions: sample concentrations 100 nM and 1000 nM, DNSA 200 μM, screening at 1 μM; for inhibition at 1 µM: 1 h
Method: General. CA-IX human recombinant enzyme was expressed with a C-terminal His tag in a mouse myeloma cell line, NS0 (R&D Systems Inc., catalog number 2188-CA). The human red blood cells were obtained from Research Blood Components, LLC. All absorbance measurements were performed on a SPECTRA MAX M2 plate reader at 25° C. The LC/MS analyses were performed on an Agilent 1100 series LC/MSD (SL) using a 30×2.1 mm Zorbax C8 column with a Phenomenex C18 pre-column. Compound detection was accomplished by electrospray mass spectroscopy in positive selected ion mode (LC/MS-SIM). The elution solvents were acetonitrile and water, contained 0.05% TFA. Nuclear magnetic resonance (NMR) spectra were obtained on a Bruker AMX 300 MHz spectrometer or a Varian 400. 19F NMR spectra were recorded on a Bruker AMX 282.35 MHz or a Varian 400 spectrometer. The mass spectra were recorded on an Agilent 1100 series LC/MSD with electrospray mass spectroscopic detection. Flash column chromatography was performed on Merck silica gel (40-63 μm) using the solvent system indicated. The radiochemical and chemical purities were analyzed by RP-HPLC.
General Combinatorial Library Screening Protocol for CA-IX
The CA-IX screening assay was employed for testing libraries derived from the various “anchor” molecules, using ethoxzolamide as a positive control. The assay was performed at a substrate (dansylamide, DNSA) concentration of 200 μM, and sample concentrations of 100 nM and 1000 nM, respectively. A modified competitive fluorescence-based assay (A. Jain, S. G. Huang, G. M. Whitesides, J. Am. Chem. Soc. 1994, 116, 5057) was used to measure CA-IX activity. The enzymatic assay was carried out in a 96-well plate. To the wells, deionized water, 40 μL of phosphate buffer (250 mM, pH 7.4), 2.4 μL of CA-IX (17 μM), and 2 μL or 20 μL of inhibitor (concentration of 100 nM or 1000 nM) were added to achieve a final volume of 180 μL. Reactions were initiated by adding 20 μL DNSA (200 μM) to each well and the plate was incubated at 25° C. for 1 hour. The fluorescence intensities from each well of the plate were then read at 460 nm using a plate reader with an excitation wavelength of 290 nm.

[1] = Table 1, Libraries 1-3, read-out: In Vitro Binding Assay (Library Screening)
[2] = Table 2, Libraries 4-7, read-out: In Vitro Binding Assay (Library (Screening))

| inhibition at 1 µM [1] [%] | inhibition at 1 µM [2] [%] | Structure (SMILES) | also measured |
| --- | --- | --- | --- |
| < 40 |  | NS(=O)(=O)c1ccc(-c2cn(CC(O)CN3C(=O)c4ccccc4C3=O)nn2)cc1 (centres unmarked) [DHK8] |  |
| < 40 |  | NS(=O)(=O)c1ccc(C(=O)NCc2cn(-c3ccnc4cc(Cl)ccc34)nn2)cc1 [DHK86] |  |
|  | < 40 | CN(Cc1ccccc1)C(=O)[C@H](Cc1ccccc1)n1cc(COc2ccc3nc(S(N)(=O)=O)sc3c2)nn1 [DHK-2-53] |  |
| < 40 |  | CC(C)[C@@H](C(=O)NCc1ccccc1)n1cc(CNC(=O)c2ccc(S(N)(=O)=O)cc2)nn1 [DHK52] |  |
| < 40 |  | NS(=O)(=O)c1nc2ccc(OCc3cn(C4CCN(S(=O)(=O)/C=C/c5ccccc5)CC4)nn3)cc2s1 [DHK143] |  |
|  | < 40 | Cc1onc(-c2ccccc2)c1CNC(=O)[C@H](C(C)C)n1cc(COc2ccc3nc(S(N)(=O)=O)sc3c2)nn1 [DHK-2-39] |  |
|  | < 40 | NS(=O)(=O)c1ccc(-c2cn([C@@H](Cc3ccccc3)C(=O)N3CCN(c4ccccn4)CC3)nn2)cc1 [DHK-2-7] |  |
| < 40 |  | NS(=O)(=O)c1ccc(-c2cn(CCN3CCOCC3)nn2)cc1 [DHK5] |  |
| < 40 |  | NS(=O)(=O)c1nc2ccc(OCc3cn(CCCCCCO)nn3)cc2s1 [DHK137] |  |
| < 40 |  | NS(=O)(=O)c1ccc(C(=O)NCc2cn(Cc3cccc(Br)c3)nn2)cc1 [DHK47] |  |
| < 40 |  | CC(C)[C@@H](C(=O)NCCc1ccsc1)n1cc(CNC(=O)c2ccc(S(N)(=O)=O)cc2)nn1 [DHK91] |  |
| < 40 |  | CCCCCCCCCCC(C(=O)O)n1cc(CNC(=O)c2ccc(S(N)(=O)=O)cc2)nn1 (centres unmarked) [DHK110] |  |
| < 40 |  | NS(=O)(=O)c1ccc(C(=O)NCc2cn(CC(=O)NC(Cc3cnc[nH]3)C(=O)O)nn2)cc1 (centres unmarked) [DHK92] |  |
| < 40 |  | CC(C)(C)c1cc(C(=O)Cn2cc(CNC(=O)c3ccc(S(N)(=O)=O)cc3)nn2)cc(C(C)(C)C)c1O [DHK59] |  |
| < 40 |  | CC(C)[C@@H](C(=O)NC1CCCCC1)n1cc(COc2ccc3nc(S(N)(=O)=O)sc3c2)nn1 [DHK124] |  |
| < 40 |  | CCCCCC[C@@H](O)[C@@H](O)c1ccc(Cn2cc(COc3ccc4nc(S(N)(=O)=O)sc4c3)nn2)cc1 [DHK135] |  |
| < 40 |  | NS(=O)(=O)c1ccc(-c2cn(C3CCN(S(=O)(=O)/C=C/c4ccccc4)CC3)nn2)cc1 [DHK109] |  |
|  | < 40 | NS(=O)(=O)c1nc2ccc(OCc3cn([C@@H](Cc4ccccc4)C(=O)N4CCC[C@@H]4CO)nn3)cc2s1 [DHK-2-57] |  |
| < 40 |  | NS(=O)(=O)c1ccc(-c2cn(C3CCN(C(=O)/C=C/c4ccccc4)CC3)nn2)cc1 [DHK82] |  |
|  |  | NS(=O)(=O)c1nc2ccc(OCc3cn([C@@H](Cc4ccccc4)C(=O)NCC4COc5ccccc5O4)nn3)cc2s1 (some centres unmarked) [DHK-2-71] | In Vitro Binding Assay (Library Screening) (Table 2, Libraries 4-7): √ |
| < 40 |  | NS(=O)(=O)c1ccc(-c2cn(CC(=O)n3ncc4ccccc43)nn2)cc1 [DHK65] |  |
| < 40 |  | COC(=O)C(Cc1ccc(C(=O)O)cc1)n1cc(CNC(=O)c2ccc(S(N)(=O)=O)cc2)nn1 (centres unmarked) [DHK56] |  |
|  | < 40 | CC(C)[C@@H](C(=O)NC1CCCCC1)n1cc(-c2ccc(S(N)(=O)=O)cc2)nn1 [DHK179] |  |
|  | < 40 | NS(=O)(=O)c1ccc(-c2cn([C@@H](Cc3ccccc3)C(=O)NCc3ccc(-c4ccccn4)s3)nn2)cc1 [DHK-2-5] |  |
|  | < 40 | CC(C)[C@@H](C(=O)NCCN1CCN(Cc2ccccc2)CC1)n1cc(COc2ccc3nc(S(N)(=O)=O)sc3c2)nn1 [DHK-2-47] |  |
| < 40 |  | NS(=O)(=O)c1ccc(C(=O)NCc2cn(C3C(O)C(O)OC3C(O)CO)nn2)cc1 (centres unmarked) [DHK112] |  |

| inhibition at 1 µM [1] [%] | inhibition at 1 µM [2] [%] | Structure (SMILES) | also measured |
| --- | --- | --- | --- |
| < 40 |  | Cc1ccc(C)c(CNC(=O)[C@H](Cc2ccccc2)n2cc(CNC(=O)c3ccc(S(N)(=O)=O)cc3)nn2)c1 [DHK45] |  |
|  | < 40 | CC(C)[C@@H](C(=O)NCC1CC1)n1cc(-c2ccc(S(N)(=O)=O)cc2)nn1 [DHK180] |  |
| < 40 |  | Cc1cc(NC(=O)Cn2cc(-c3ccc(S(N)(=O)=O)cc3)nn2)n(C)n1 [DHK26] |  |
| < 40 |  | CC(C)[C@H](C(=O)NCc1ccccc1)n1cc(-c2ccc(S(N)(=O)=O)cc2)nn1 [DHK23] |  |
|  | < 40 | NS(=O)(=O)c1nc2ccc(OCc3cn([C@@H](Cc4ccccc4)C(=O)N4CCN(c5ncccn5)CC4)nn3)cc2s1 [DHK-2-55] |  |
| < 40 |  | NCCCn1cc(CNC(=O)c2ccc(S(N)(=O)=O)cc2)nn1 [DHK95] |  |
|  | < 40 | NS(=O)(=O)c1ccc(-c2cn([C@@H](Cc3ccccc3)C(=O)NCCN3CCN(Cc4ccccc4)CC3)nn2)cc1 [DHK-2-23] |  |
| < 40 |  | NS(=O)(=O)c1ccc(-c2cn(CC(=O)N3CCN(c4cc(Cl)cc(Cl)c4)CC3)nn2)cc1 [DHK107] |  |
|  | < 40 | CN(Cc1ccccc1)C(=O)[C@H](Cc1ccccc1)n1cc(-c2ccc(S(N)(=O)=O)cc2)nn1 [DHK-2-2] |  |
| < 40 |  | CC(C)C[C@@H](C(=O)NCc1ccccc1)n1cc(CNC(=O)c2ccc(S(N)(=O)=O)cc2)nn1 [DHK41] |  |
|  | < 40 | CC(C)[C@@H](C(=O)NCCSCc1ccc(CN(C)C)o1)n1cc(COc2ccc3nc(S(N)(=O)=O)sc3c2)nn1 [DHK-2-27] |  |
|  | < 40 | COC(=O)C(NC(=O)[C@H](Cc1ccccc1)n1cc(COc2ccc3nc(S(N)(=O)=O)sc3c2)nn1)C(C)C (some centres unmarked) [DHK-2-60] |  |
|  | < 40 | CCOC(=O)C1CCN(C(=O)[C@H](Cc2ccccc2)n2cc(-c3ccc(S(N)(=O)=O)cc3)nn2)CC1 [DHK-2-17] |  |
|  | < 40 | CC(C)[C@@H](C(=O)N1CCN(c2ccccn2)CC1)n1cc(COc2ccc3nc(S(N)(=O)=O)sc3c2)nn1 [DHK-2-31] |  |
| < 40 |  | NS(=O)(=O)c1ccc(-c2cn(CCC(=O)Nc3ccccc3)nn2)cc1 [DHK102] |  |
| < 40 |  | NS(=O)(=O)c1ccc(-c2cn(CCCCCCO)nn2)cc1 [DHK73] |  |
| < 40 |  | NS(=O)(=O)c1ccc(C(=O)NCc2cn(CCCCCCO)nn2)cc1 [DHK88] |  |
| < 40 |  | NS(=O)(=O)c1ccc(C(=O)NCc2cn(CCN3CCOCC3)nn2)cc1 [DHK34] |  |
|  | < 40 | CC(C)[C@@H](C(=O)NCc1ccc(F)cc1)n1cc(COc2ccc3nc(S(N)(=O)=O)sc3c2)nn1 [DHK-2-25] |  |
|  | < 40 | CC(C)[C@@H](C(=O)N1CCC[C@@H]1CO)n1cc(COc2ccc3nc(S(N)(=O)=O)sc3c2)nn1 [DHK-2-30] |  |
|  | < 40 | CCOC(=O)[C@@H](Cc1ccccc1)NC(=O)[C@H](Cc1ccccc1)n1cc(-c2ccc(S(N)(=O)=O)cc2)nn1 [DHK-2-8] |  |
|  | < 40 | CC(C)[C@@H](C(=O)N1CCN(CCO)CC1)n1cc(COc2ccc3nc(S(N)(=O)=O)sc3c2)nn1 [DHK-2-42] |  |
|  | < 40 | NS(=O)(=O)c1ccc(-c2cn([C@@H](Cc3ccccc3)C(=O)N3CCC(N4CCCC4)CC3)nn2)cc1 [DHK-2-21] |  |
| < 40 |  | NCCCn1cc(-c2ccc(S(N)(=O)=O)cc2)nn1 [DHK108] |  |
|  | < 40 | CCOC(=O)C1CCN(C(=O)[C@H](C(C)C)n2cc(-c3ccc(S(N)(=O)=O)cc3)nn2)CC1 [DHK184] |  |
|  | < 40 | NS(=O)(=O)c1nc2ccc(OCc3cn([C@@H](Cc4ccccc4)C(=O)N4CCC(N5CCCC5)CC4)nn3)cc2s1 [DHK-2-72] |  |

| Structure (SMILES) | inhibition at 1 µM [1] [%] | inhibition at 1 µM [2] [%] | also measured |
| --- | --- | --- | --- |
| C=CC1C[N@@]2CCC1CC2[C@@H](c1ccnc2ccc(OC)cc12)n1cc(-c2ccc(S(N)(=O)=O)cc2)nn1 (some centres unmarked) [DHK72] | < 40 |  |  |
